In US20240197726A1, “NOVEL TETRAHYDROISOQUINOLINE ALKALOID COMPOUND CONTAINING MACROCYCLE” (THE UNIVERSITY OF TOKYO, priority 2021, published 2024):
Read-outs that look alike come from different tables or passages of the source.

Tests used:
[1] = tested on: NCI-H460 lung cancer cells; assay: antitumor activity, sulforhodamine B cell growth assay, NCI-H460; format: cell-based; settings: NCl--H460 lung cancer cells; read-out: antitumor activity GI50 value: 50% growth inhibitory concentration
Experimental: (§1) The THIQ compound containing a macrocyclic structure of the present invention was administered to various cancer cell lines, and the antitumor activity (Go value) was observed. Specifically, verification was performed according to the literature (Yamori, T.; Matsunaga, A.; Sato, S.; Yamazaki, K.; Komi, A.; Ishizu, K. et al. Cancer Res. 1999, 59, 4042) by the following procedure.
(§2) Cells were plated at an appropriate density in a 96-well plate in RPMI 1640 together with 5% fetal bovine serum, and adhered overnight. The cells were exposed to a drug for 48 hours. Then, according to the sulforhodamine B assay described by Skehan et al (Skehan P., Storeng R., Scudiero D., Monks A., McMahon J., Vistica D., Warren J. T., Bokesch H., Kenney S., Boyd M. R. J Natl. Cancer Inst, 1990, 82, 1107-1112), the cell growth rate was measured. The absorbance of the control well (C) and the test well (T) was measured at 525 nm. In addition, the time at which the drug was added was set as time 0, and the absorbance for the test well (T0) was measured. Using these measured values, the cell growth inhibitory effect (% growth=PG) was calculated by the following formula at each concentration of the drug.
(§3) (T<T0): PG=100×[(T−T0)/T]
(§4) The PG values determined above for each cell line were plotted against the concentration (logarithm) on a semi-logarithmic graph, and summarized for each visceral cancer. Concentrations at which the dose-response curve of each cell line crossed the horizontal line of PG=50%, 0%, or −50% were calculated. These concentrations were defined as Log GI50, Log TGI, and Log LC50. Actually, using two data points of the drug concentration before and after crossing each horizontal line, the drug concentration (logarithmic value) at the intersection of the straight line connecting the two points and the horizontal line for each PG was calculated.

DMS273 lung cancer cells = assay: antitumor activity, sulforhodamine B cell growth assay, DMS273; format: cell-based; settings: DMS273 lung cancer cells; read-out: antitumor activity GI50 value: 50% growth inhibitory concentration
Experimental: as §1, §2, §3, §4

[2] = tested on: HBC-4 breast cancer cells; assay: antitumor activity, sulforhodamine B cell growth assay, HBC-4; format: cell-based; settings: HBC-4 breast cancer cells; read-out: antitumor activity GI50 value: 50% growth inhibitory concentration
Experimental: as §1, §2, §3, §4

LOX-IMVI melanoma cells = assay: antitumor activity, sulforhodamine B cell growth assay, LOX-IMVI; format: cell-based; settings: LOX-IMVI melanoma cells; read-out: antitumor activity GI50 value: 50% growth inhibitory concentration
Experimental: as §1, §2, §3, §4

SK-OV-3 cancer cells = assay: antitumor activity, sulforhodamine B cell growth assay, SK-OV-3; format: cell-based; settings: SK-OV-3 cervical cancer cells; read-out: antitumor activity GI50 value: 50% growth inhibitory concentration
Experimental: as §1, §2, §3, §4

[3] = tested on: SF-539 central nervous system cancer cells; assay: antitumor activity, sulforhodamine B cell growth assay, SF-539; format: cell-based; settings: SF-539 central nervous system cancer cells; read-out: antitumor activity GI50 value: 50% growth inhibitory concentration
Experimental: as §1, §2, §3, §4

ACHN kidney cancer cells = assay: antitumor activity, sulforhodamine B cell growth assay, ACHN; format: cell-based; settings: ACHN kidney cancer cells; read-out: antitumor activity GI50 value: 50% growth inhibitory concentration
Experimental: as §1, §2, §3, §4

[4] = tested on: NCI-H226 lung cancer cells; assay: antitumor activity, sulforhodamine B cell growth assay, NCI-H226; format: cell-based; settings: NCl-H226 lung cancer cells; read-out: antitumor activity GI50 value: 50% growth inhibitory concentration
Experimental: as §1, §2, §3, §4

[5] = tested on: MKN45 gastric cancer cells; assay: antitumor activity, sulforhodamine B cell growth assay, MKN45; format: cell-based; settings: MKN45 gastric cancer cells; read-out: antitumor activity GI50 value: 50% growth inhibitory concentration
Experimental: as §1, §2, §3, §4

[6] = tested on: U251 central nervous system cancer cells; assay: antitumor activity, sulforhodamine B cell growth assay, U251; format: cell-based; settings: U251 central nervous system cancer cells; read-out: antitumor activity GI50 value: 50% growth inhibitory concentration
Experimental: as §1, §2, §3, §4

[7] = tested on: MDA-MB-231 breast cancer cells; assay: antitumor activity, sulforhodamine B cell growth assay, MDA-MB-231; format: cell-based; settings: MDA-MB-231 breast cancer cells; read-out: antitumor activity GI50 value: 50% growth inhibitory concentration
Experimental: as §1, §2, §3, §4

[8] = tested on: St-4 gastric cancer cells; assay: antitumor activity, sulforhodamine B cell growth assay, St-4; format: cell-based; settings: SI-4 gastric cancer cells; read-out: antitumor activity GI50 value: 50% growth inhibitory concentration
Experimental: as §1, §2, §3, §4

DMS114 lung cancer cells = assay: antitumor activity, sulforhodamine B cell growth assay, DMS114; format: cell-based; settings: DMS114 lung cancer cells; read-out: antitumor activity GI50 value: 50% growth inhibitory concentration
Experimental: as §1, §2, §3, §4

[9] = tested on: HBC-5 breast cancer cells; assay: antitumor activity, sulforhodamine B cell growth assay, HBC-5; format: cell-based; settings: HBC-5 breast cancer cells; read-out: antitumor activity GI50 value: 50% growth inhibitory concentration
Experimental: as §1, §2, §3, §4

[10] = tested on: SNB-75 central nervous system cancer cells; assay: antitumor activity, sulforhodamine B cell growth assay, SNB-75; format: cell-based; settings: SNB-75 central nervous system cancer cells; read-out: antitumor activity GI50 value: 50% growth inhibitory concentration
Experimental: as §1, §2, §3, §4

[11] = tested on: HCT-116 colorectal cancer cells; assay: antitumor activity, sulforhodamine B cell growth assay, HCT-116; format: cell-based; settings: HCT-116 colorectal cancer cells; read-out: antitumor activity GI50 value: 50% growth inhibitory concentration
Experimental: as §1, §2, §3, §4

[12] = tested on: MKN-A gastric cancer cells; assay: antitumor activity, sulforhodamine B cell growth assay, MKN-A; format: cell-based; settings: MKN-A gastric cancer cells; read-out: antitumor activity GI50 value: 50% growth inhibitory concentration
Experimental: as §1, §2, §3, §4

[13] = tested on: DU-145 prostate cancer cells; assay: antitumor activity, sulforhodamine B cell growth assay, DU-145; format: cell-based; settings: DU-145 prostate cancer cells; read-out: antitumor activity GI50 value: 50% growth inhibitory concentration
Experimental: as §1, §2, §3, §4

[14] = tested on: BSY-1 breast cancer cells; assay: antitumor activity, sulforhodamine B cell growth assay, BSY-1; format: cell-based; settings: BSY-1 breast cancer cells; read-out: antitumor activity GI50 value: 50% growth inhibitory concentration
Experimental: as §1, §2, §3, §4

[15] = tested on: HCT-15 colorectal cancer cells; assay: antitumor activity, sulforhodamine B cell growth assay, HCT-15; format: cell-based; settings: HCT-15 colorectal cancer cells; read-out: antitumor activity GI50 value: 50% growth inhibitory concentration
Experimental: as §1, §2, §3, §4

[16] = tested on: MKN1 gastric cancer cells; assay: antitumor activity, sulforhodamine B cell growth assay, MKN1; format: cell-based; settings: MKN1 gastric cancer cells; read-out: antitumor activity GI50 value: 50% growth inhibitory concentration
Experimental: as §1, §2, §3, §4

A549 lung cancer cells [17] = assay: antitumor activity, sulforhodamine B cell growth assay, A549; format: cell-based; settings: A549 lung cancer cells; read-out: antitumor activity GI50 value: 50% growth inhibitory concentration
Experimental: as §1, §2, §3, §4

[18] = tested on: KM-12 colorectal cancer cells; assay: antitumor activity, sulforhodamine B cell growth assay, KM-12; format: cell-based; settings: KM-12 colorectal cancer cells; read-out: antitumor activity GI50 value: 50% growth inhibitory concentration
Experimental: as §1, §2, §3, §4

[19] = tested on: SNB-78 central nervous system cancer cells; assay: antitumor activity, sulforhodamine B cell growth assay, SNB-78; format: cell-based; settings: SNB-78 central nervous system cancer cells; read-out: antitumor activity GI50 value: 50% growth inhibitory concentration
Experimental: as §1, §2, §3, §4

[20] = tested on: HT-29 colorectal cancer cells; assay: antitumor activity, sulforhodamine B cell growth assay, HT-29; format: cell-based; settings: HT-29 colorectal cancer cells; read-out: antitumor activity GI50 value: 50% growth inhibitory concentration
Experimental: as §1, §2, §3, §4

[21] = tested on: HCC2998 colorectal cancer cells; assay: antitumor activity, sulforhodamine B cell growth assay, HCC2998; format: cell-based; settings: HCC2998 colorectal cancer cells; read-out: antitumor activity GI50 value: 50% growth inhibitory concentration
Experimental: as §1, §2, §3, §4

[22] = tested on: MKN-B gastric cancer cells; assay: antitumor activity, sulforhodamine B cell growth assay, MKN-B; format: cell-based; settings: MKN-B gastric cancer cells; read-out: antitumor activity GI50 value: 50% growth inhibitory concentration
Experimental: as §1, §2, §3, §4

[23] = tested on: SF-295 central nervous system cancer cells; assay: antitumor activity, sulforhodamine B cell growth assay, SF-295; format: cell-based; settings: SF-295 central nervous system cancer cells; read-out: antitumor activity GI50 value: 50% growth inhibitory concentration
Experimental: as §1, §2, §3, §4

[24] = tested on: NCI-H522 lung cancer cells; assay: antitumor activity, sulforhodamine B cell growth assay, NCI-H522; format: cell-based; settings: NCl-H522 lung cancer cells; read-out: antitumor activity GI50 value: 50% growth inhibitory concentration
Experimental: as §1, §2, §3, §4

[25] = tested on: NCI-H23 lung cancer cells; settings: NCl-H23 lung cancer cells; comparative value based on the literature; read-out: antitumor activity GI50 value: 50% growth inhibitory concentration; cited from earlier work
[26] = tested on: HT-29 colorectal cancer cells; settings: HT-29 colorectal cancer cells; comparative value based on the literature; read-out: antitumor activity GI50 value: 50% growth inhibitory concentration; cited from earlier work
[27] = tested on: MCF-7 breast cancer cells; settings: MCF-7 breast cancer cells; comparative value based on the literature; read-out: antitumor activity GI50 value: 50% growth inhibitory concentration; cited from earlier work
A549 lung cancer cells [28] = settings: A549 lung cancer cells; comparative value based on the literature; read-out: antitumor activity GI50 value: 50% growth inhibitory concentration; cited from earlier work
[29] = tested on: NCI-H460 lung cancer cells; settings: NCl--H460 lung cancer cells; comparative value based on the literature; read-out: antitumor activity GI50 value: 50% growth inhibitory concentration; cited from earlier work
[30] = tested on: MDA-MB-231 breast cancer cells; settings: MDA-MB-231 breast cancer cells; comparative value based on the literature; read-out: antitumor activity GI50 value: 50% growth inhibitory concentration; cited from earlier work
[31] = tested on: HCT-116 colorectal cancer cells; settings: HCT-116 colorectal cancer cells; comparative value based on the literature; read-out: antitumor activity GI50 value: 50% growth inhibitory concentration; cited from earlier work

CC1=C(C)C(=O)C2=C(CC3(C)[C@H]4c5c(cc(C)c(C)c5C)C[C@@](C)(C(C)N3[C@H]2CNC(=O)C(C)C)N4C)C1=O (stereo partly shown) [drawing 164]
GI50 [1]: 400 nM | GI50 (DMS273 lung cancer cells): 270 nM | GI50 [2]: 59 nM | GI50 (LOX-IMVI melanoma cells): 61 nM | GI50 (SK-OV-3 cancer cells): 540 nM | GI50 [3]: 180 nM | GI50 (ACHN kidney cancer cells): 320 nM | GI50 [4]: 310 nM | GI50 [5]: 300 nM | GI50 [6]: 370 nM | GI50 [7]: 130 nM | GI50 [8]: 430 nM | GI50 (DMS114 lung cancer cells): 35 nM | GI50 [9]: 62 nM | GI50 [10]: 150 nM | GI50 [11]: 290 nM | GI50 [12]: 250 nM | GI50 [13]: 490 nM | GI50 [14]: 34 nM | GI50 [15]: 390 nM | GI50 [16]: 52 nM | GI50 (A549 lung cancer cells [17]): 1600 nM | GI50 [18]: 530 nM | GI50 [19]: 63 nM | GI50 [20]: 190 nM | GI50 [21]: 350 nM | GI50 [22]: 170 nM | GI50 [23]: 500 nM | GI50 [24]: 43 nM

COc1c(C)cc2c(c1C)[C@H]1N(C)[C@@](C)(C2)C(C)N2C1(C)[C@@H]1CCC3(NCCc4cc(C)c(C)cc43)C(=O)OC[C@@]2(C)c2c3c(c(C)c(C)c21)OCO3 (stereo partly shown)
GI50 [25]: 2.1 nM | GI50 [26]: 9.8 nM | GI50 [27]: 2.6 nM | GI50 (A549 lung cancer cells [28]): 10.4 nM | GI50 [29]: 1.8 nM | GI50 [30]: 3.9 nM | GI50 [31]: 4.9 nM

COc1c(C)cc2c(c1C)[C@H]1N(C)[C@@](C)(C2)C(C)N2C1(C)[C@@H]1CCC3(CCCC4=C3Cc3ccc(C)cc34)C(=O)OC[C@@]2(C)c2c3c(c(C)c(C)c21)OCO3 (stereo partly shown) [drawing 163]
GI50 [25]: 5.3 nM | GI50 [26]: 2.4 nM | GI50 [27]: 1.7 nM | GI50 (A549 lung cancer cells [28]): 1.3 nM | GI50 [29]: 1.5 nM | GI50 [30]: 3.4 nM | GI50 [31]: 6.4 nM
